Measurements taken from PMC10046369, “Low-Affinity/High-Selectivity Dopamine Transport Inhibition Sufficient to Rescue Cognitive Functions in the Aging Rat” (Biomolecules, 2023).

Assays:
Assay in all cases: biochemical
Design in all cases: KINOMEscan competition binding panel, per cent of control
Settings in all cases: read-out: %Ctrl @ 2800nM
[1] = target: T1, ABL1(T315I)-phosphorylated (Homo sapiens, UniProt P00519, T315I)
T1 construct: phosphorylated
In short: (§1)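 Values are expressed as percent of control, calculated as ((test − positive control)/(negative control − positive control)) × 100, so lower numbers mean stronger hits. Binding was measured by KINOMEscan competition assay in a 450-kinase human panel including disease mutants, using the contractor's validated protocol.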

ABL1-phosphorylated = target: T2, ABL1-phosphorylated (Homo sapiens, UniProt P00519)
T2 construct: phosphorylated
In short: as §1

ACVR2B = ACVR2B (Homo sapiens, UniProt Q13705)
Sequence of ACVR2B (Q13705 whole entry): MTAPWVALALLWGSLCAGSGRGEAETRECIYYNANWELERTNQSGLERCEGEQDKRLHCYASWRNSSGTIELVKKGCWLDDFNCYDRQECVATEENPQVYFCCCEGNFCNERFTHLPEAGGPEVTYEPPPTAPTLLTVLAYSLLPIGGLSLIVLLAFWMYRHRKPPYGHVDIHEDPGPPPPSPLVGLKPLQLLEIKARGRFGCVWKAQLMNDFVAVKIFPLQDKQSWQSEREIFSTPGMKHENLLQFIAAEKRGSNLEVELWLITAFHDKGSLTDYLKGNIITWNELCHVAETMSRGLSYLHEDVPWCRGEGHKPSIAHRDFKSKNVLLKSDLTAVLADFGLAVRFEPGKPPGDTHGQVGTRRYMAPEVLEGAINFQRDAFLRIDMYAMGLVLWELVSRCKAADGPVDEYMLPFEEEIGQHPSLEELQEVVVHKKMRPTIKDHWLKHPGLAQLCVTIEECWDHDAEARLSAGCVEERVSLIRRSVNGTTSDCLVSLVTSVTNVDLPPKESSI
In short: as §1

CAMK2D = CAMK2D (Homo sapiens, UniProt Q13557)
In short: as §1

CDK2 = CDK2 (Homo sapiens, UniProt P24941)
In short: as §1

CDK4 = CDK4 (Homo sapiens, UniProt P11802)
In short: as §1

CHEK2 = CHEK2 (Homo sapiens, UniProt O96017)
In short: as §1

CLK4 = CLK4 (Homo sapiens, UniProt Q9HAZ1)
In short: as §1

CSF1R = CSF1R (Homo sapiens, UniProt P07333)
In short: as §1

CSNK2A2 = CSNK2A2 (Homo sapiens, UniProt P19784)
Sequence of CSNK2A2 (P19784 whole entry): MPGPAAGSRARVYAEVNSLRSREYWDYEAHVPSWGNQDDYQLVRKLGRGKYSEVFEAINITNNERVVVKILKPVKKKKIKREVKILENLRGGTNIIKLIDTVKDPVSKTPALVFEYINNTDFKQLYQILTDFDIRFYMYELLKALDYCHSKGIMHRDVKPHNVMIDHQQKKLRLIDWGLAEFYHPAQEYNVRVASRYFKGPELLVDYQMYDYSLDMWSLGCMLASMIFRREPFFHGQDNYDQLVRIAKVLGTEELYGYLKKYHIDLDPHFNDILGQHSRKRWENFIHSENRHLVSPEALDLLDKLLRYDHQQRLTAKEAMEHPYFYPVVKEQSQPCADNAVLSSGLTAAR
In short: as §1

EGFR(G719C) = EGFR(G719C) (Homo sapiens, UniProt P00533, G719C)
Sequence of EGFR(G719C) (P00533 whole entry G719C): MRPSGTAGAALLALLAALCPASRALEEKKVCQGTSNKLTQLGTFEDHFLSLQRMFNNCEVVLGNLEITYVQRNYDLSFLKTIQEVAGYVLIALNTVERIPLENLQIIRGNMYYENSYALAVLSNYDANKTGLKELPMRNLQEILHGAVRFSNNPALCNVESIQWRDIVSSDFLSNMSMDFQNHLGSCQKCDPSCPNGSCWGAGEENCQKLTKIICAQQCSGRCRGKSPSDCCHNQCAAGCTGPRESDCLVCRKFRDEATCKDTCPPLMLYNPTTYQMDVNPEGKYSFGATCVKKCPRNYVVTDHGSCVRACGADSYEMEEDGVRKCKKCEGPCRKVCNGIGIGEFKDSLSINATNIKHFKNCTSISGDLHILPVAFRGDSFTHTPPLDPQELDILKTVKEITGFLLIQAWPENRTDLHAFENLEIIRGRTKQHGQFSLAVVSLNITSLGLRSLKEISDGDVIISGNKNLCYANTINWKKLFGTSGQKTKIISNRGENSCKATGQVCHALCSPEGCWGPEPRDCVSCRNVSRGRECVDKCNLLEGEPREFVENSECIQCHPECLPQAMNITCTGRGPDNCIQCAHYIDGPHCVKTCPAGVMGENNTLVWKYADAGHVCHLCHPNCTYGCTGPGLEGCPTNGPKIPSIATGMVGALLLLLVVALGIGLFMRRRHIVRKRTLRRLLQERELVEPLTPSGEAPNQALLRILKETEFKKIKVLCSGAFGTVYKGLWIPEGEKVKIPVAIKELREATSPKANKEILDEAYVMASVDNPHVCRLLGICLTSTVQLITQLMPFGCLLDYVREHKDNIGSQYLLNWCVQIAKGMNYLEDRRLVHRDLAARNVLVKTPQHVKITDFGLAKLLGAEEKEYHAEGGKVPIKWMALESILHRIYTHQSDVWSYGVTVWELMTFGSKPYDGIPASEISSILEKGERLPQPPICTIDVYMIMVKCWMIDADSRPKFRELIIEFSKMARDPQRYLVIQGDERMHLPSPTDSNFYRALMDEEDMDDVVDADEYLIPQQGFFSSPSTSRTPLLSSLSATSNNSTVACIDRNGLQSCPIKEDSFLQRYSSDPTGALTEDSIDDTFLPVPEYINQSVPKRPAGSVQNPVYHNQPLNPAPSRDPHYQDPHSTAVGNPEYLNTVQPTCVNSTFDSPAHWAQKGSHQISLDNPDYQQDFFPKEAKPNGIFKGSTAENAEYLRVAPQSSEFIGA
In short: as §1

[2] = target: EGFR(L747-E749del, A750P) (Homo sapiens, UniProt P00533, A750P/DEL747-749)
In short: as §1

EPHB1 = EPHB1 (Homo sapiens, UniProt P54762)
In short: as §1

EPHB6 = EPHB6 (Homo sapiens, UniProt O15197)
In short: as §1

ERK3 = target: T3, ERK3 (Homo sapiens, UniProt Q16659)
T3 construct: gene MAPK6
In short: as §1

ERK5 = target: T4, ERK5 (Homo sapiens, UniProt Q13164)
T4 construct: gene MAPK7
T4 sequence (Q13164 whole entry): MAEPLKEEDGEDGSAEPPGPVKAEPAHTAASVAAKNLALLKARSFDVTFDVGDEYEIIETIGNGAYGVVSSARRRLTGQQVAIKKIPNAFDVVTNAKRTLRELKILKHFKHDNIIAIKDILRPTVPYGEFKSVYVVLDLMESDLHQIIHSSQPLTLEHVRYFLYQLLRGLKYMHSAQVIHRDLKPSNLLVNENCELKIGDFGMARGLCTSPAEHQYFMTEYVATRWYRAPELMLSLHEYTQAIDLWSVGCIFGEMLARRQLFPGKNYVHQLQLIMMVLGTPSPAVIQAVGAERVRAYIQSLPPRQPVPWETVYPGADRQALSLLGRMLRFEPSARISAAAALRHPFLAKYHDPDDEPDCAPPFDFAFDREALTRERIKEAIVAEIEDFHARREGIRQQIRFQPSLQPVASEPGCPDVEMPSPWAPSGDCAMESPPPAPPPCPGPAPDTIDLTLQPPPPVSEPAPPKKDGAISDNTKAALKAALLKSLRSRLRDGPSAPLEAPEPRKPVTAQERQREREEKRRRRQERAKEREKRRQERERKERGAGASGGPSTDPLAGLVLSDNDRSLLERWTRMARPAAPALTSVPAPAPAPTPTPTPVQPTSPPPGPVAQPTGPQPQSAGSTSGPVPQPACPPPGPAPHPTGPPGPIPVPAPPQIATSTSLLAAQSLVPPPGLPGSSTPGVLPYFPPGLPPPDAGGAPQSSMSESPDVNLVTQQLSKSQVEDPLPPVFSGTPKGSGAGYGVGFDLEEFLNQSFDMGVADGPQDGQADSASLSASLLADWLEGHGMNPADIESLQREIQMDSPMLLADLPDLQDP
In short: as §1

FLT3(D835V) = FLT3(D835V) (Homo sapiens, UniProt P36888, D835V)
In short: as §1

FLT4 = FLT4 (Homo sapiens, UniProt P35916)
In short: as §1

ICK = target: T5, ICK (Homo sapiens, UniProt Q9UPZ9)
T5 construct: gene CILK1
T5 sequence (Q9UPZ9 whole entry): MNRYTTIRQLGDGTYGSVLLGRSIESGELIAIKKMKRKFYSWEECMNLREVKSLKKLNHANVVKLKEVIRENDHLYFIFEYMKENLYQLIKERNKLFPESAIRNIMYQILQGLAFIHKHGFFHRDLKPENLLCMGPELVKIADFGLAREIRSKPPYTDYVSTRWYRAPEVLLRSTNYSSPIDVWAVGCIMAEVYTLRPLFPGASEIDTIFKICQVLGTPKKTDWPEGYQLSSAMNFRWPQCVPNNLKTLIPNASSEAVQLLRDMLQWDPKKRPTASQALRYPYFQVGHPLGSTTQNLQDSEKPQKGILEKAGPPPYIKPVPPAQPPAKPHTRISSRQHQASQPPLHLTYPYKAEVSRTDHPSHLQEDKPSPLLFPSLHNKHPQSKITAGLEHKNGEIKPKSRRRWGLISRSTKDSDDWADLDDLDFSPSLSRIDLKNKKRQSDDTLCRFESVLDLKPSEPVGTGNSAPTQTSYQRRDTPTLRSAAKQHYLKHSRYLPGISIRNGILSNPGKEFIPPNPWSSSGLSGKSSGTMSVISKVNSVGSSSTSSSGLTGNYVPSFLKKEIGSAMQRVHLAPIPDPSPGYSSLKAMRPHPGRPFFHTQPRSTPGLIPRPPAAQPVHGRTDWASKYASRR
In short: as §1

JNK3 = target: T6, JNK3 (Homo sapiens, UniProt P53779)
T6 construct: gene MAPK10
In short: as §1

MARK3 = MARK3 (Homo sapiens, UniProt P27448)
Sequence of MARK3 (P27448 whole entry): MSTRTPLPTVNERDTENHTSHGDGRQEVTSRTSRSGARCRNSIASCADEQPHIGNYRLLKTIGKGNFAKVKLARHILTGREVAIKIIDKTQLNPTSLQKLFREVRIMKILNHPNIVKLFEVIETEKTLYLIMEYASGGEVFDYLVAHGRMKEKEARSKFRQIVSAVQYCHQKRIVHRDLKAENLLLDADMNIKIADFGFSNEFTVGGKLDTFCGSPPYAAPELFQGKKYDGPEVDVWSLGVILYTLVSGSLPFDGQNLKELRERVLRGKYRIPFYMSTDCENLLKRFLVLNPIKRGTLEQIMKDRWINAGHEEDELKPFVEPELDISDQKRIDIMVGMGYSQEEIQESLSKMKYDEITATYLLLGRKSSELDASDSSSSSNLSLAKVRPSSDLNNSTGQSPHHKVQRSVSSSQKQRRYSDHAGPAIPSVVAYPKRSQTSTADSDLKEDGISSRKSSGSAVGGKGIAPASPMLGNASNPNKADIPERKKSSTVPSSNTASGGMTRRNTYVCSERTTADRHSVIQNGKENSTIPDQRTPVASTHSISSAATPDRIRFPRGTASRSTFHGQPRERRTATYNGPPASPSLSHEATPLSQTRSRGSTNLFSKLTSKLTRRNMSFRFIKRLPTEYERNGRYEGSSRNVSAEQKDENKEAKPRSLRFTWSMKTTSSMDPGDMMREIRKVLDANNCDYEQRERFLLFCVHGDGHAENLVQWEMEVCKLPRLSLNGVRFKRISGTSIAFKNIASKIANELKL
In short: as §1

MEK4 = target: T7, MEK4 (Homo sapiens, UniProt P45985)
T7 construct: gene MAP2K4
In short: as §1

MET(M1250T) = MET(M1250T) (Homo sapiens, UniProt P08581, M1250T)
In short: as §1

PIK3CD = PIK3CD (Homo sapiens, UniProt O00329)
In short: as §1

[3] = target: T8, RSK2(Kin.Dom.2-C-terminal) (Homo sapiens, UniProt P51812)
T8 construct: gene RPS6KA3; Kin.Dom.2-C-terminal
T8 sequence (P51812 whole entry): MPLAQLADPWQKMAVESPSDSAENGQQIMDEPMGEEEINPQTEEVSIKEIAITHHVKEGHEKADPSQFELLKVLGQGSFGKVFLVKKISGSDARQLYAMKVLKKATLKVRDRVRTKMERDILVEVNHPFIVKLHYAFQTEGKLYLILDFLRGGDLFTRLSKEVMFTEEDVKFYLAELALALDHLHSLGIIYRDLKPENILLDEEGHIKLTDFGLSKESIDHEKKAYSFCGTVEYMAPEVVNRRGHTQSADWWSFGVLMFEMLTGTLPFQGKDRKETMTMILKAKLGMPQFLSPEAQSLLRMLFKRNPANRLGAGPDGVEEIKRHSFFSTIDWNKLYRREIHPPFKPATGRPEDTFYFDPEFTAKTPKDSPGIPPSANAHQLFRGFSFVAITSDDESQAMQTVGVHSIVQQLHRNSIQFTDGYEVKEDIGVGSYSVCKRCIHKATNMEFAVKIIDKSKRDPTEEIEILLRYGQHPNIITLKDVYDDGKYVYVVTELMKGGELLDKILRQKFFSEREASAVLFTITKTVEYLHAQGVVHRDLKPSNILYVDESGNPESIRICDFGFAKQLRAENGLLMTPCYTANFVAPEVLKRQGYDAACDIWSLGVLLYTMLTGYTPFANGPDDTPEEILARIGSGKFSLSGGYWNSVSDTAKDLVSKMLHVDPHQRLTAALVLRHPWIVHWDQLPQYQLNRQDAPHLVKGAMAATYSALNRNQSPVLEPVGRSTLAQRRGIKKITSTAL
In short: as §1

SRPK3 = SRPK3 (Homo sapiens, UniProt Q9UPE1)
In short: as §1

## [O-][S@@+](Cc1cncs1)C(c1ccccc1)c1ccccc1 [S-CE-123, (S)-5-((Benzhydrylsulfinyl)Methyl)Thiazole]
[1]
  remaining binding at 2.8 µM: 98%
ABL1-phosphorylated
  remaining binding at 2.8 µM: 100%
ACVR2B
  remaining binding at 2.8 µM: 100%
CAMK2D
  remaining binding at 2.8 µM: 88%
CDK2
  remaining binding at 2.8 µM: 94%
CDK4
  remaining binding at 2.8 µM: 100%
CHEK2
  remaining binding at 2.8 µM: 78%
CLK4
  remaining binding at 2.8 µM: 100%
CSF1R
  remaining binding at 2.8 µM: 76%
CSNK2A2
  remaining binding at 2.8 µM: 100%
EGFR(G719C)
  remaining binding at 2.8 µM: 74%
[2]
  remaining binding at 2.8 µM: 93%
EPHB1
  remaining binding at 2.8 µM: 100%
EPHB6
  remaining binding at 2.8 µM: 89%
ERK3
  remaining binding at 2.8 µM: 93%
ERK5
  remaining binding at 2.8 µM: 91%
FLT3(D835V)
  remaining binding at 2.8 µM: 100%
FLT4
  remaining binding at 2.8 µM: 100%
ICK
  remaining binding at 2.8 µM: 91%
JNK3
  remaining binding at 2.8 µM: 74%
MARK3
  remaining binding at 2.8 µM: 70%
MEK4
  remaining binding at 2.8 µM: 100%
MET(M1250T)
  remaining binding at 2.8 µM: 99%
PIK3CD
  remaining binding at 2.8 µM: 86%
[3]
  remaining binding at 2.8 µM: 96%
SRPK3
  remaining binding at 2.8 µM: 76%
